pEC50: −log10 of the molar value.
Columns and labels:
[1] = test system: MT4; test: Cytotoxicity against human lymphocyte MT-4 cells; format: functional
[2] = test system: MT4; test: In vitro inhibitory activity against replication of HIV-1 in human lymphocyte MT-4 cells; format: functional, cell-based
[3] = test system: CCRF-CEM; test: In vitro inhibitory activity against replication of HIV-2 in human lymphocyte CEM cells; format: functional, cell-based
[4] = test system: CCRF-CEM; test: In vitro inhibitory activity against replication of HIV-2 in human lymphocyte thymidine kinase deficient CEM cells; format: functional, cell-based
[5] = test system: CCRF-CEM; test: In vitro inhibitory activity against replication of HIV-1 in human lymphocyte CEM cells; format: functional, cell-based
[6] = test system: MT4; test: In vitro inhibitory activity against replication of HIV-2 in human lymphocyte MT-4 cells; format: functional, cell-based

## Cc1cn([C@H]2C[C@H](N=[N+]=[N-])[C@@H](CO)O2)c(=O)[nH]c1=O [ZIDOVUDINE]
[1]
  CC50: 6000 nM
[2]
  pEC50: 8.60
[3]
  pEC50: 8.46
[4]
  pEC50: < 4.00

## Cc1cn(C2CC(N=[N+]=[N-])C(COP(=O)(Oc3ccccc3[N+](=O)[O-])Oc3ccccc3[N+](=O)[O-])O2)c(=O)[nH]c1=O (configuration not stated)
[1]
  CC50: 42000 nM
[2]
  pEC50: 7.92
[3]
  pEC50: 8.21
[5]
  pEC50: 8.28
[6]
  pEC50: 7.85
[4]
  pEC50: < 4.00

## Cc1cn(C2CC(N=[N+]=[N-])C(COP(=O)(Oc3cccc([N+](=O)[O-])c3)Oc3cccc([N+](=O)[O-])c3)O2)c(=O)[nH]c1=O (configuration not stated)
[1]
  CC50: 36000 nM
[2]
  pEC50: 8.60
[3]
  pEC50: 8.42
[5]
  pEC50: 8.42
[6]
  pEC50: 8.51
[4]
  pEC50: 4.07

## Cc1cn(C2CC(N=[N+]=[N-])C(COP(=O)(Oc3ccc([N+](=O)[O-])cc3)Oc3ccc([N+](=O)[O-])cc3)O2)c(=O)[nH]c1=O (configuration not stated)
[1]
  CC50: 50000 nM
[2]
  pEC50: 7.89
[3]
  pEC50: 7.82
[5]
  pEC50: 8.05
[6]
  pEC50: 8.00
[4]
  pEC50: 4.30
